Data from paper PMC7822874, “Chemoprotective antimalarials identified through quantitative high-throughput screening of Plasmodium blood and liver stage parasites” (Scientific Reports, 2021).
Where two headings read alike, the source gives them in different places.

Experiments:
[1] = molecular target: Firefly luciferase (Fluc, EC 1.13.12.7) (Photinus pyralis, UniProt P08659); assay: biochemical; design: single determination (the paper says generally: 'qHTS assays were performed in a single replicate with a 7- to 11-point dose response format'; it is not stated for this counterscreen itself)
in vitro [2] = conditions: human, HepG2 cells; n = 1
[3] = tested on: P. falciparum Dd2 Cytb V259L; assay: SYBR Green ABS proliferation assay, NCGC00473217 selected clone F06; type: cell-based, Plasmodium falciparum; conditions: Plasmodium falciparum
In short: (§1)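 Drug-selected Dd2 clones bearing the cytochrome b mutation were cultured at 37 °C under 5% CO2, 5% O2, 90% N2. Growth was read at 72 h by SYBR Green-I fluorescence, normalized to controls as percent response.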

[4] = tested on: P. falciparum Dd2 Cytb F123L; assay: SYBR Green ABS proliferation assay, NCGC00473217 selected clone G08; type: cell-based, Plasmodium falciparum; conditions: Plasmodium falciparum
In short: as §1

[5] = Parallel artificial membrane permeability assay (PAMPA); type: in vitro ADME; conditions: for PAMPA pH7.4: pH 7.4
Description: (§2) Pharmacokinetic modeling experiments, parallel artificial membrane permeability assay (PAMPA), solubility, and rat liver microsome stability assessment were performed on all synthetic compounds, as previously described[73]–[75].

[6] = Rat liver microsomal stability (RLMS); conditions: rat liver microsomes; for half-life: rat
Description: as §2

[7] = tested on: P. falciparum Dd2 Cytb G131S; assay: SYBR Green ABS proliferation assay, NCGC00374598 selected clone C11; type: cell-based, Plasmodium falciparum; conditions: Plasmodium falciparum
In short: as §1

[8] = tested on: P. falciparum Dd2 (clone B2) asexual blood stage parasites; assay: P. falciparum Dd2 asexual blood stage SYBR Green-I 72 h proliferation assay (qHTS); type: cell-based, Plasmodium falciparum; conditions: Plasmodium falciparum, DD2, 72 h, SYBR Green 72 h
[9] = tested on: P. falciparum Dd2 Cytb A122D; assay: SYBR Green ABS proliferation assay, NCGC00473217 selected clone F12; type: cell-based, Plasmodium falciparum; conditions: Plasmodium falciparum
In short: as §1

Aqueous solubility = type: physicochemical; conditions: aqueous media
Description: as §2

in vitro [10] = conditions: human, HepG2-A16-CD81EGFP cells, uninfected
[11] = tested on: luciferase-expressing P. berghei liver stage parasites in HepG2 cells; assay: Inhibition of liver-stage development assay (ILSDA), Method 2 (WRAIR, 96-well); type: cell-based, Plasmodium berghei; conditions: for AC50: Plasmodium berghei, HepG2, Method 2
[12] = tested on: Plasmodium falciparum Dd2 asexual blood stage parasites; assay: microbe, parasite or virus in culture; design: species or system Plasmodium falciparum Dd2 in human erythrocytes; single determination (one 11-point concentration-response curve); conditions: Plasmodium falciparum, DD2, Erythrocyte, 72 h; read-out: AC50
in vitro [13] = conditions: human, hepg2 cells
HepG2 = conditions: human, hepg2 cells, 48 h
HepG2-A16-CD81EGFP cells = conditions: average of 2 wells
[14] = tested on: P. berghei-ANKA-GFP-LucCON liver stage parasites in HepG2-A16-CD81EGFP cells; assay: P. berghei liver stage Pb-Luc assay, Method 1 (UCSD, 1536-well); type: cell-based, Plasmodium berghei; conditions: Plasmodium berghei, 48 h, P. berghei liver stage, average of 2 wells on a 1536 well plate; for activity at 1 µM: 1 µM compound treatment (10 mM stocks); for activity at 3 µM: 3 µM compound treatment (10 mM stocks)
[15] = DD2, NCGC00473217 selected clone F06, read-out: AC50 [μM], Cytb V259L (converted)
[16] = DD2, NCGC00473217 selected clone, read-out: AC50 Log[M] ± SD, Cytb V259L (converted)
[17] = DD2, NCGC00473217 selected clone G08, highest concentration 29 µM, read-out: AC50 [μM], Cytb F123L (converted)
[18] = DD2, NCGC00374598 selected clone C11, read-out: AC50 [μM], Cytb G131S (converted)
[19] = DD2, NCGC00374598 selected clone, read-out: AC50 Log[M] ± SD, Cytb G131S (converted)
[20] = WT Dd2-B2, read-out: AC50 Log[M] ± SD, Dd2-B2 (parental line) (converted)
[21] = approximate value in μM, read-out: AC50 [μM], Dd2-B2 (parental line) (converted)
[22] = DD2, NCGC00473217 selected clone F12, read-out: AC50 [μM], Cytb A122D (converted)
[23] = DD2, NCGC00473217 selected clone, read-out: AC50 Log[M] ± SD, Cytb A122D (converted)

Sequence of Firefly luciferase (Fluc, EC 1.13.12.7) (P08659 whole entry): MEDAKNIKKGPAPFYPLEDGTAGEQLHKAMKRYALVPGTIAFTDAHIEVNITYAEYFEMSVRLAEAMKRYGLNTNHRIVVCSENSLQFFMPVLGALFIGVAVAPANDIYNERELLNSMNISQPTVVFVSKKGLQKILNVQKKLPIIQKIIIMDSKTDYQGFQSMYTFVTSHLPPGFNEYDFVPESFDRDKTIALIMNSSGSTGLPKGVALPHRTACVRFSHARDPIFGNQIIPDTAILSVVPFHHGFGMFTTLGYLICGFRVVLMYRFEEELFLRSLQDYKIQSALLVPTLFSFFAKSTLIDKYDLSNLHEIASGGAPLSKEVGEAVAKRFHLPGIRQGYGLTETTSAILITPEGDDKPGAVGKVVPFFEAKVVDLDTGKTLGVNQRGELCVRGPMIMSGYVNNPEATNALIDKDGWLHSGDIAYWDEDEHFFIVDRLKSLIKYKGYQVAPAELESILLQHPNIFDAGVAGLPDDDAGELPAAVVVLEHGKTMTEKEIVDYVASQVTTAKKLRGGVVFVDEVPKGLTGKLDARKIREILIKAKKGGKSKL

Compound | AC50 [1] | AC50 [3, 15] | AC50 [3, 16] | AC50 [4, 17] | half-life [6] | AC50 [7, 18] | AC50 [7, 19] | AC50 [8, 20] | AC50 [8, 21] | AC50 [9, 22] | solubility (Aqueous solubility) | other results
COc1cc(SC)ccc1C(=O)Nc1nc2ccccc2[nH]1 [MLS001172173-01] | 17.1 nM |  |  |  |  |  |  |  |  |  |  | CC50 at 48 h (in vitro [2]): 19300 nM
CCCN1C(CC(C)C)=NS(=O)(=O)c2cc(NC(=O)C3CCCC3)ccc21 [NCGC00521158] |  | 2.16 µM | 2.14 µM | 11.7 µM | 4.8 min | 4.15 µM | 4.17 µM | 2.69e-06 M | 2.72e-06 M | 5.25 µM | < 1 µg/mL | AC50 ([4]; DD2, NCGC00473217 selected clone, read-out: AC50 Log[M] ± SD, Cytb F123L (converted)): 11.7 µM; PAMPA pH7.4 [5]: 726 1e-6 cm/s; AC50 [9, 23]: 5.25 µM
CCCN1C(CC(C)C)=NS(=O)(=O)c2cc(NC(=O)c3ccc(F)cc3)ccc21 [NCGC00521139] |  | > 29 µM |  | > 29 µM | 6.3 min | 0.355 µM | 0.355 µM | 5.25e-07 M | 5.23e-07 M | > 29 µM | < 1 µg/mL | 
CN1C(CC2CCCCC2)=NS(=O)(=O)c2cc(NC(=O)c3ccc(F)s3)ccc21 [NCGC00651709] |  | > 29 µM |  | > 29 µM | 12.9 min | > 29 µM |  | 1.48e-06 M | 1.5e-06 M | > 29 µM | < 1 µg/mL | 
CCCN1C(CC(C)C)=NS(=O)(=O)c2cc(NC(=O)c3sccc3F)ccc21 [NCGC00523542] |  | 5.43 µM | 5.37 µM | > 29 µM | 4.6 min | 1.78 µM | 1.78 µM | 1.58e-06 M | 1.59e-06 M | 1.31 µM | < 1 µg/mL | PAMPA pH7.4 [5]: 770 1e-6 cm/s; AC50 [9, 23]: 1.32 µM
CCCN1C(CC(C)C)=NS(=O)(=O)c2cc(NC(=O)c3sccc3C)ccc21 [NCGC00521035] |  | 6.84 µM | 6.76 µM | > 29 µM | 3.4 min | 1.65 µM | 1.66 µM | 1.58e-06 M | 1.59e-06 M | 2.83 µM | < 1 µg/mL | PAMPA pH7.4 [5]: 1597 1e-6 cm/s; AC50 [9, 23]: 2.82 µM
CCCc1ccc(C(=O)NC(=O)c2ccccc2O)cc1 [MLS000850457-01] | 5410 nM |  |  |  |  |  |  |  |  |  |  | viability at 48 h, 1 µM (in vitro [10]): 101%; viability at 48 h, 3 µM (in vitro [10]): 94%; Max Resp (signal direction of the dose response) ([11]; Method 2, Decrease = decreasing P. berghei viability with dose, Increase = increasing signal, Inactive = no dose response): Decrease; AC50 ([11]; Hill fit, 50% of maximum activity response, read-out: AC50): 282 nM; AC50 ([11]; log10 of molar AC50 from Hill fit, read-out: Log AC50 (converted)): 282 nM; AC50 [12]: 1060 nM
CN1C(CC2CCCCC2)=NS(=O)(=O)c2cc(NC(=O)c3ccc(F)cc3)ccc21 [NCGC00651716] |  | > 29 µM |  | > 29 µM | 6.6 min | > 29 µM |  |  | > 2.9e-05 M | > 29 µM | < 1 µg/mL | 
CCCN1C(CC(C)C)=NS(=O)(=O)c2cc(NC(=O)c3ccc(F)s3)ccc21 [NCGC00523537] |  | 0.894 µM | 0.891 µM | > 29 µM | 4.4 min | 0.317 µM | 0.316 µM | 1.12e-07 M | 1.13e-07 M | 0.797 µM | < 1 µg/mL | PAMPA permeability [5]: high permeability; PAMPA pH7.4 [5]: 1480 1e-6 cm/s; RLMS T1/2 [6]: poor stability; AC50 [9, 23]: 0.794 µM
Cn1c(/N=N/c2ccccc2)nc2ccccc21 [MLS000700530-01] | 6810 nM |  |  |  |  |  |  |  |  |  |  | viability at 48 h, 1 µM (in vitro [10]): 91%; viability at 48 h, 3 µM (in vitro [10]): 70%; CC50 at 48 h (in vitro [2]): 12200 nM; AC50 [12]: 841 nM
Cc1cccnc1Nc1nc(-c2ccccn2)cs1 [MLS000528306-01] | 19200 nM |  |  |  |  |  |  |  |  |  |  | CC50 at 48 h (in vitro [13]): 1090 nM; viability at 48 h, 1 µM (in vitro [10]): 57%; viability at 48 h, 3 µM (in vitro [10]): 30%; Log AC50 (M) (HepG2): -5.9643 M; AC50 [12]: 473 nM
CCCN1C(CC2CCC2)=NS(=O)(=O)c2cc(NC(=O)c3cccs3)ccc21 [NCGC00537664] |  | 1.19 µM | 1.2 µM | > 29 µM | 4.3 min | 0.466 µM | 0.468 µM | 4.47e-07 M | 4.48e-07 M | 1.35 µM | < 1 µg/mL | AC50 [9, 23]: 1.35 µM
CCCN1C(CC(C)C)=NS(=O)(=O)c2cc(NC(=O)c3ccc(Cl)s3)ccc21 [NCGC00523535] |  | 7.1 µM | 7.08 µM | > 29 µM | 3.8 min | 1 µM | 1 µM | 1.51e-06 M | 1.53e-06 M | > 29 µM | < 1 µg/mL | 
CN1C(c2ccccc2)=NS(=O)(=O)c2cc(NC(=O)c3ccc(F)s3)ccc21 [NCGC00651712] |  | > 29 µM |  | > 29 µM | > 30 min | > 29 µM |  |  | > 2.9e-05 M | > 29 µM | < 1 µg/mL | 
CCCN1C(CC(C)C)=NS(=O)(=O)c2cc(NC(=O)c3ccc(Cl)cc3)ccc21 [NCGC00531775] |  | > 29 µM |  | > 29 µM | 4.1 min | 0.2 µM | 0.2 µM | 1.26e-06 M | 1.26e-06 M | > 29 µM | < 1 µg/mL | 
O=C1c2cnc(-c3cc4ccccc4o3)nc2OCCN1c1ccccc1 [NCGC00413607-01] | 622 nM |  |  |  |  |  |  |  |  |  |  | CC50 at 48 h (in vitro [2]): 8860 nM
NC(=NOC(=O)c1cccc(F)c1)c1ccccn1 [MLS001075504-01] | 10800 nM |  |  |  |  |  |  |  |  |  |  | CC50 at 48 h (in vitro [13]): 15300 nM; Log AC50 (M) (HepG2): -4.8143 M
Cc1cc(N2CCN(C)CC2)nc2ccc(NC(=O)Nc3ccccc3Br)cc12 [NCGC00126483-01] | 17100 nM |  |  |  |  |  |  |  |  |  |  | CC50 at 48 h (in vitro [13]): 43200 nM; Log AC50 (M) (HepG2): -4.3643 M
Nc1ncnc2c1ncn2[C@@H]1O[C@H](CN[S+](=O)([O-])NC(=O)c2cccc(-c3noc(-c4ccccc4F)n3)c2)[C@@H](O)[C@H]1O [NCGC00183809-01] | 13.6 nM |  |  |  |  |  |  |  |  |  |  | CC50 at 48 h (in vitro [2]): 1720 nM
Cc1nn(-c2ccccc2)c(C)c1/C=N/Nc1nc2ccccc2[nH]1 [MLS000332160-01] | 12100 nM |  |  |  |  |  |  |  |  |  |  | HepG2 1uM growth rep1 (HepG2-A16-CD81EGFP cells; HepG2, 1 µM compound treatment (10 mM stocks), replicate 1, normalized): 93%; HepG2 1uM growth rep2 (HepG2-A16-CD81EGFP cells; HepG2, 1 µM compound treatment (10 mM stocks), replicate 2, normalized): 90%; HepG2 3uM growth rep1 (HepG2-A16-CD81EGFP cells; HepG2, 3 µM compound treatment (10 mM stocks), replicate 1, normalized): 89%; HepG2 3uM growth rep2 (HepG2-A16-CD81EGFP cells; HepG2, 3 µM compound treatment (10 mM stocks), replicate 2, normalized): 86%; activity at 1 µM ([14]; replicate 1, normalized, read-out: PbLuc 1uM growth rep1): 86%; activity at 1 µM ([14]; replicate 2, normalized, read-out: PbLuc 1uM growth rep2): 81%; activity at 3 µM ([14]; replicate 1, normalized, read-out: PbLuc 3uM growth rep1): 33%; activity at 3 µM ([14]; replicate 2, normalized, read-out: PbLuc 3uM growth rep2): 53%; AC50 [12]: 1500 nM
